Patent US11820726B2, “Motuporamine derivatives as antimicrobial agents and antibiotic enhancers against resistant gram-negative bacteria” (University of Central Florida Research Foundation, Inc., priority 2017, dated 2023)

Legend:
bacterial membrane = conditions: cited from earlier work
[1] = test system: E. aerogenes EA289, P. aeruginosa PAO1, and K. pneumoniae KPC2-ST258; experiment: Determination of antibiotic MIC in the presence of compounds (restoring enhancer concentration); format: cell-based
Protocol: Determination of antibiotic MIC in the presence of compounds: Briefly, restoring enhancer concentrations were determined with an inoculum of 5×10^5 colony forming unit (CFU) in MH broth (200 μL) containing twofold serial dilutions of each derivative and antibiotic (chloramphenicol, doxycycline, cefepime, or erythromycin; 2 μg/mL). […] Measurements were repeated in triplicate.

[2] = test system: S. aureus RN4220, P. aeruginosa PAO1 and E. coli ANSI; conditions: cited from earlier work; for antibacterial activity: unsubstituted diamines; for activity against S. aureus RN4220, P. aeruginosa PAO1 and E. coli ANSI: higher polyamines
P. aeruginosa PAO1 = experiment: MIC of doxycycline against P. aeruginosa PAO1; format: cell-based; conditions: Pseudomonas aeruginosa
Protocol: Antibiotics: All the antibiotics were purchased from Sigma-Aldrich except for doxycycline which was purchased from TCI Europe (Zwijndrecht, Belgium). All antibiotics were dissolved in water. The susceptibility of bacterial strains to antibiotics and compounds was determined in microplates by the standard broth dilution method, according to the recommendations of the Comité de l'AntibioGramme de la Société Française de Microbiologie (CA-SFM).^[36] Briefly, MICs were determined with an inoculum of 10^5 CFU in of MH broth (200 μL) containing twofold serial dilutions of each drug. […] Measurements were repeated in triplicate.

[3] = test system: Staphylococcus aureus ATCC25923; experiment: ATP release (membrane disruption) in S. aureus; format: cell-based; conditions: ATP release for 1 min, 100 μg/mL
Protocol: Measurement of ATP efflux: Squalamine were prepared in doubly distilled water at different concentrations. A suspension of growing S. aureus or E. aerogenes (EA289) in MH broth was incubated at 37° C. The suspension (90 μL) was added to squalamine solution (10 μL, synthesized in lab according to reported procedures), and the mixture was vortexed for Is. Luciferin-luciferase reagent (Yelen, France; 50 μL) was immediately added, and luminescence was quantified with an Infinite M200 microplate reader (Tecan) for 5 s. ATP concentration was quantified by addition of a known amount of ATP (1 μM).

E. aerogenes EA289 = experiment: Nitrocefin hydrolysis assay (outer membrane permeabilization); format: cell-based, Enterobacter aerogenes; conditions: 5b even at 3.9 μM, compared to spermine-treated or untreated control
Protocol: Nitrocefin hydrolysis assay: Outer membrane permeabilization was measured by using nitrocefin, a chromogenic substrate of periplasmic β-lactamase. MH broth (10 mL) was inoculated with of an overnight culture (0.1 mL) of EA289 and grown at 37° C. to OD600=0.5. The remaining steps were performed at room temperature. Cells were recovered by centrifugation (3600 G, 20 min) and washed once with potassium phosphate buffer (PPB) (20 mM, pH 7.2) containing MgCl2 (1 mM). After another centrifugation, the pellet was resuspended in PPB (100 μL) and adjusted to OD600=0.5. Then, either Polymyxin B (positive control; Sigma-Aldrich) or 5b (50 μL) was added to the cell suspension (100 gm/L) to final concentrations of 0.98-500 μM “2.5, 15, 62.5, and 125 μM”. Nitrocefin (50 μL, 50 μg/mL; Oxoid) was added, and its hydrolysis was monitored spectrophotometrically by measuring the increase in absorbance at 490 nm. Assays were performed in 96-well plates with an M200 Pro spectrophotometer (Tecan).

In the case of `S=C(NCCCNCCCCCNCCCNC(=S)NCC(c1ccccc1)c1ccccc1)NCC(c1ccccc1)c1ccccc1` [1,13-bis (((2,2-diphenyl)-1-ethyl)thioureido)-4,10-diazatridecane], the cytoplasmic membrane depolarization (bacterial membrane) is listed as “depolarize the cytoplasmic membrane”.

With `Cl.Cl.NCCCCNCc1c2ccccc2cc2ccccc12` [7b] the “synergy with chloramphenicol and erythromycin” value ([1]; antibiotic 2 μg/mL, PAO1, EA289 and KPC2-ST258) was “weak or no activity” and the “restoration of doxycycline activity” value ([1]; doxycycline 2 μg/mL, derivative even at 40 μM) was “no improvement”.

For `NCCCCCN` [cadaverine], the antibacterial activity [2] is given as “no antibacterial activity” and the membrane rupture (bacterial membrane) is given as “did not cause membrane rupture”.

In the case of `C[C@H]1c2cccc(O)c2C(=O)C2=C(O)[C@]3(O)C(=O)C(C(N)=O)=C(O)[C@@H](N(C)C)[C@@H]3[C@@H](O)[C@@H]21` [doxycycline], the MIC (P. aeruginosa PAO1) is reported as 16 µg/mL.

In the case of `NCCCCN` [putrescine], the antibacterial activity [2] is given as “no antibacterial activity” and the membrane rupture (bacterial membrane) is given as “did not cause membrane rupture”.

In the case of `NCCCCNCCCN` [spermidine], the “activity against S. aureus RN4220, P. aeruginosa PAO1 and E. coli ANSI” value [2] is given as “inactive”.

For `NCCCNCCCCNCCCN` [spermine], the “ATP release (disruption of the bacterial membrane)” value [3] is given as “no significant effect” and the “activity against S. aureus RN4220, P. aeruginosa PAO1 and E. coli ANSI” value [2] is given as “inactive”.

For `CC(C)[C@@H](CC[C@@H](C)[C@H]1CC[C@H]2[C@@H]3[C@H](O)C[C@H]4C[C@@H](NCCCNCCCCN)CC[C@]4(C)[C@H]3CC[C@]12C)OS(=O)(=O)O` [squalamine], the “ATP release (disruption of the bacterial membrane)” value [3] was “dramatic disruption of the bacterial membrane”.

For polymyxin-B, the “rate of nitrocefin hydrolysis” value (E. aerogenes EA289) was “increase in nitrocefin hydrolysis”.
